Results as given in BindingDB's records for doi:10.1016/0014-2999(89)90363-4 (Novo Industri, 1989).
pKi: −log10 of the molar value. Several values for one entry are separate records, joined by “and”; a condition that tells them apart may be missing. Equal values may be shown once. Where a name gives a salt, the structure may show the parent alone.

How the values were obtained:
[1] = target: T1, Muscarinic acetylcholine receptor M2 (Rattus norvegicus, UniProt P10980)
T1 sequence (P10980 whole entry): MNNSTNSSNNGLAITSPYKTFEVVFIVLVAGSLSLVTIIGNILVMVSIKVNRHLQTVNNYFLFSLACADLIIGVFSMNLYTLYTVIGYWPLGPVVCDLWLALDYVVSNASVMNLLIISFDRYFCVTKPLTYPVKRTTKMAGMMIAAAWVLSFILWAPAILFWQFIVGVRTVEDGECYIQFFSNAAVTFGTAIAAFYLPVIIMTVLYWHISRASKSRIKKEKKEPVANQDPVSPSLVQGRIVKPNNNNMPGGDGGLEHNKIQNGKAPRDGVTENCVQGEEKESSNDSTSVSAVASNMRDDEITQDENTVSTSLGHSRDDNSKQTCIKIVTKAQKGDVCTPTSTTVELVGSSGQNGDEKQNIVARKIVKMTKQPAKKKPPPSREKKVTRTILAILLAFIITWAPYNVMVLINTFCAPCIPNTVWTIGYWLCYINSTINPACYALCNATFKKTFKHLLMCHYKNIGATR

D(2) dopamine receptor = D(2) dopamine receptor (Rattus norvegicus, UniProt P61169)
D(2) dopamine receptor, sequence (P61169 whole entry): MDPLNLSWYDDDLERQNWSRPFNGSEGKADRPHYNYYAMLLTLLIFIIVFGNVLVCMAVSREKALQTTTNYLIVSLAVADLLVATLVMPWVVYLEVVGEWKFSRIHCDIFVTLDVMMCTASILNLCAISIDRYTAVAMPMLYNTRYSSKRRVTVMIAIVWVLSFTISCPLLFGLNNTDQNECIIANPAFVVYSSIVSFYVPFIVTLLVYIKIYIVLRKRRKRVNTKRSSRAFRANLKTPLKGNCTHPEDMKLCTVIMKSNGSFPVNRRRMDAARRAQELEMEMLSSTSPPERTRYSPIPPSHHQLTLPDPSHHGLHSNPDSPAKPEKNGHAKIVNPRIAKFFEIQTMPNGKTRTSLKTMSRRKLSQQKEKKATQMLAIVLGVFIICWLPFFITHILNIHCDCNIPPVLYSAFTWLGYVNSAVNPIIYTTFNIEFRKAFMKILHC

D(1A) dopamine receptor = D(1A) dopamine receptor (Rattus norvegicus, UniProt P18901)
D(1A) dopamine receptor, sequence (P18901 whole entry): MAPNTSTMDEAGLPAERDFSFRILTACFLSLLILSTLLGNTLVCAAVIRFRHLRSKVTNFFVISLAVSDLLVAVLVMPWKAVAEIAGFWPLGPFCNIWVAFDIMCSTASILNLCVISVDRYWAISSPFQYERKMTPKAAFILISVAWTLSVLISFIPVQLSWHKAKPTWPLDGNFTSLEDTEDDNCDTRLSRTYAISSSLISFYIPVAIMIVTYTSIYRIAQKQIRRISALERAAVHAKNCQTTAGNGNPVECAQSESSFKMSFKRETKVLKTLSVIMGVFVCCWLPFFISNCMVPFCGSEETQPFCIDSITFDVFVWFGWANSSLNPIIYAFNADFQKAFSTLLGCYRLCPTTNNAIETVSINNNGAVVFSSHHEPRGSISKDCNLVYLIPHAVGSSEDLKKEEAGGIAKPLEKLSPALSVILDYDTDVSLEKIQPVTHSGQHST

[2] = target: Beta-1 adrenergic receptor (Rattus norvegicus, UniProt P18090)
Beta-1 adrenergic receptor, sequence (P18090 whole entry): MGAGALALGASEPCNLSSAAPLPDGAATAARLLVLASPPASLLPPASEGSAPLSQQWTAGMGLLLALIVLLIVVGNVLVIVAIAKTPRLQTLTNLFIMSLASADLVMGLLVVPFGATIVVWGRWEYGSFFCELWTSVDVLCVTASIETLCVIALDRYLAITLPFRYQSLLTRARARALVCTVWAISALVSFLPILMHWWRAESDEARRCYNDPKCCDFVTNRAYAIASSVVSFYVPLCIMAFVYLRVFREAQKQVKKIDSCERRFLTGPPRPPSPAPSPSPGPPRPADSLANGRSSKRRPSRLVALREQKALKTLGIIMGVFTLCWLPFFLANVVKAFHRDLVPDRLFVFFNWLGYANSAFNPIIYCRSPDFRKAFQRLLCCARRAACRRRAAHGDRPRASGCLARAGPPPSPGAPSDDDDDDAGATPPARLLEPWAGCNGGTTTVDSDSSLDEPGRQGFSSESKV

[3] = target: T2, Alpha-1A adrenergic receptor (Rattus norvegicus, UniProt P43140)
T2 sequence (P43140 whole entry): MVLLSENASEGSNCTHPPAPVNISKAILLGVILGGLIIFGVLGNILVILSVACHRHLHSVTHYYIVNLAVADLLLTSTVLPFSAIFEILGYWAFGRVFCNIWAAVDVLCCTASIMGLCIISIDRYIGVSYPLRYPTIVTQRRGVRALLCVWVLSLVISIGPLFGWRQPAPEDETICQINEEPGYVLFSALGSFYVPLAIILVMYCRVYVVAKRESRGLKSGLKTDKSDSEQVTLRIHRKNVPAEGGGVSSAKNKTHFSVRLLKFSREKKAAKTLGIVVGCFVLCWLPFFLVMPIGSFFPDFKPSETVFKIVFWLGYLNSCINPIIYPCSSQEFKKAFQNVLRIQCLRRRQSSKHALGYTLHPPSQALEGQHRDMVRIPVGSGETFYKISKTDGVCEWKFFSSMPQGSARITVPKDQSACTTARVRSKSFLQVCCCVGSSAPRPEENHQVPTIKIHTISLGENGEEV

[4] = target: T3, 5-hydroxytryptamine receptor 1A (Rattus norvegicus, UniProt P19327)
T3 sequence (P19327 whole entry): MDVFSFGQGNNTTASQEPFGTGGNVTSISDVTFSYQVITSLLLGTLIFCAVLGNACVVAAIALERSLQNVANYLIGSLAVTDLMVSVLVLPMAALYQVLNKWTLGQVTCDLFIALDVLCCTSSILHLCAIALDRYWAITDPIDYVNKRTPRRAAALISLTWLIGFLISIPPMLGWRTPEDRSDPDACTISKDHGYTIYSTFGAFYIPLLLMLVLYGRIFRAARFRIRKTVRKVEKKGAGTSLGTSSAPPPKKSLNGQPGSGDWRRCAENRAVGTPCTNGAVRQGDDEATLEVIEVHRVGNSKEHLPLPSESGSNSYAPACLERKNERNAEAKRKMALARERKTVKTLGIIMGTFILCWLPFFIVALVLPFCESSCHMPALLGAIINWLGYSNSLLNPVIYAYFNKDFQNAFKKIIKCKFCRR

Histamine H1 receptor = Histamine H1 receptor (Rattus norvegicus, UniProt P31390)
Histamine H1 receptor, sequence (P31390 whole entry): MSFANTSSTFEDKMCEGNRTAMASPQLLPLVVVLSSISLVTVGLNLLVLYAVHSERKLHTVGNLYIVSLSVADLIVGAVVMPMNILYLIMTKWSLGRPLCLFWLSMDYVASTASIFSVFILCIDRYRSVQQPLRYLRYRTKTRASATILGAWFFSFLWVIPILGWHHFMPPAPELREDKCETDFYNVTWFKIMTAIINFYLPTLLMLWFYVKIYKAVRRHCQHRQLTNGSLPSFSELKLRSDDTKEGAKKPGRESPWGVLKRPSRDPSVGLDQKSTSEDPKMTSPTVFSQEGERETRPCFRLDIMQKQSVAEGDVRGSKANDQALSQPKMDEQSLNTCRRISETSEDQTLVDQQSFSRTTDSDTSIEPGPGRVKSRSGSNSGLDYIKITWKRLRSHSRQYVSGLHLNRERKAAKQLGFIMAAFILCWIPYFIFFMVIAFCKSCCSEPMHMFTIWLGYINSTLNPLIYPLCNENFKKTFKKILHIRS

[5] = target: T4, Alpha-2C adrenergic receptor (Rattus norvegicus, UniProt P22086)
T4 sequence (P22086 whole entry): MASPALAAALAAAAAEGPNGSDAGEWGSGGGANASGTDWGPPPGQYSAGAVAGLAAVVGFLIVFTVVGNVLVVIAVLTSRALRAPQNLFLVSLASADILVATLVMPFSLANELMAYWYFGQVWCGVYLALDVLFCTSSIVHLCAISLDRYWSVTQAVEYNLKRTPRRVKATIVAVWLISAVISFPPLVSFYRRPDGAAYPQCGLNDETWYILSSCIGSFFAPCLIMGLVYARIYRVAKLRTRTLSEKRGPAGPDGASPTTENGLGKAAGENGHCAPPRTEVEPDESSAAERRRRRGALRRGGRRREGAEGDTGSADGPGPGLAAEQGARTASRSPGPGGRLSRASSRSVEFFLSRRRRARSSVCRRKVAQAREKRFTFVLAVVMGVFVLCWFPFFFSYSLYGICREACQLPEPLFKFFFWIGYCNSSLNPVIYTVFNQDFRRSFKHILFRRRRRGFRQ

[6] = target: Gamma-aminobutyric acid receptor subunit alpha-1 (Rattus norvegicus, UniProt P62813)
Gamma-aminobutyric acid receptor subunit alpha-1, sequence (P62813 whole entry): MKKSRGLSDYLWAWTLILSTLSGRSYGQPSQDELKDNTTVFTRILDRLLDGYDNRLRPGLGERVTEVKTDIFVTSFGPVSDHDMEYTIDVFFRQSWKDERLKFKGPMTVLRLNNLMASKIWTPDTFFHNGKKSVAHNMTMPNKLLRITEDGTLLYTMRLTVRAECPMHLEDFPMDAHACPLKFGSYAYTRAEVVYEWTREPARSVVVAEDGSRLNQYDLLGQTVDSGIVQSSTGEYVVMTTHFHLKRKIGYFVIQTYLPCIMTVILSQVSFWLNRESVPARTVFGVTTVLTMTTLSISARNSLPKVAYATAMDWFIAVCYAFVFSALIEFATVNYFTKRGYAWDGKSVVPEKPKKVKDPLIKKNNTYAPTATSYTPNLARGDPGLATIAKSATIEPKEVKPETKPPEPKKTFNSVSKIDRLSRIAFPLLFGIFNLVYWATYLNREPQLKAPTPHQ

[7] = target: Norepinephrine transporter (Rattus norvegicus, UniProt Q9JIA2)
[8] = target: Sodium-dependent serotonin transporter (Rattus norvegicus, UniProt P31652)
Sodium-dependent serotonin transporter, sequence (P31652 whole entry): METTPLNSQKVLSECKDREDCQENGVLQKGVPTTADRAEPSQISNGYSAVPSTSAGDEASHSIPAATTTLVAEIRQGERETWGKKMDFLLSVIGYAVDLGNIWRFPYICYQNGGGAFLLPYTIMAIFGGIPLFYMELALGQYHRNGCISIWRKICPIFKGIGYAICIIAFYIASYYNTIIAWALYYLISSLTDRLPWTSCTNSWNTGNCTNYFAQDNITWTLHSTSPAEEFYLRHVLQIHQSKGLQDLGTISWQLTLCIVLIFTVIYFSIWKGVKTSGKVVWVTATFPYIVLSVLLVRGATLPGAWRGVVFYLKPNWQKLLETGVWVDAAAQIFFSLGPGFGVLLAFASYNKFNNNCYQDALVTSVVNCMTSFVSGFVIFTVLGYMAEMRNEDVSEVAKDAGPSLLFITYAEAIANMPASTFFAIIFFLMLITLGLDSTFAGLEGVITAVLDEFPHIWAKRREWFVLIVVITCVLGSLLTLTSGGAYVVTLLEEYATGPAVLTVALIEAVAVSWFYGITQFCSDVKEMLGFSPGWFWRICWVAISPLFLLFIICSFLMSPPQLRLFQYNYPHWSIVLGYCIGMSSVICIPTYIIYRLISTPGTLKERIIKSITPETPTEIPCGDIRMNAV

[9] = target: 5-hydroxytryptamine receptor 2A (Rattus norvegicus, UniProt P14842)
5-hydroxytryptamine receptor 2A, sequence (P14842 whole entry): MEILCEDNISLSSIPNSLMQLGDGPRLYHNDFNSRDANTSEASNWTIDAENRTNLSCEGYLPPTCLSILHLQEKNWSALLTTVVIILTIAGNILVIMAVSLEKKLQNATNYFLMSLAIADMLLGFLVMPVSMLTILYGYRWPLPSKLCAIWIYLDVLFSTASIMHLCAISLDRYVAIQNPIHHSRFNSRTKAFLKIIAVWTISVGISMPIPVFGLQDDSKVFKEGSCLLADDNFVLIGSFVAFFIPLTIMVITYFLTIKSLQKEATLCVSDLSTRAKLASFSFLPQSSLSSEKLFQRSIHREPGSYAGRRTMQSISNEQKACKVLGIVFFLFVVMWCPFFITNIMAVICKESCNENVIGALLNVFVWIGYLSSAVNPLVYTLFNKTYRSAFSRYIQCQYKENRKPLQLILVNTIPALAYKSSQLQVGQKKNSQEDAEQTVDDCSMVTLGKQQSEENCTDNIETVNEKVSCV

SMILES	pKi [1]	pKi (D(2) dopamine receptor)	pKi (D(1A) dopamine receptor)	pKi [2]	pKi [3]	pKi [4]	pKi (Histamine H1 receptor)	pKi [5]	pKi [6]	pKi [7]	pKi [8]	pKi [9]
CN1Cc2c(N)cccc2[C@H](c2ccccc2)C1 [(+/-)-2-Methyl-4-phenyl-1,2,3,4-tetrahydro-isoquinolin-8-ylamine]	< 5.00	< 5.00	< 5.00	< 5.00	< 5.00	< 5.00	7.46	< 5.00	< 5.00	7.95		
O[C@]1(c2ccc(Cl)cc2)c2ccccc2C2=NCCN21 [Mazanor]										8.10		
NCCc1ccc(O)c(O)c1										6.00	6.00	
CN(C)CCCC1(c2ccc(F)cc2)OCc2cc(C#N)ccc21 (stereo not drawn) [CITALOPRAM HYDROBROMIDE]	< 5.00	< 5.00	< 5.00	< 5.00	< 5.00	< 5.00		< 5.00	< 5.00			
Fc1ccc(C(OCCN2CCN(CCCc3ccccc3)CC2)c2ccc(F)cc2)cc1 [Vanoxerine]	< 5.00	6.57	6.00	< 5.00	5.46	5.44	7.74	5.15	< 5.00 and 5.10			6.72
C[C@H](N)Cc1ccccc1 [beta-aminopropylbenzene]										7.23 and 7.24		
NCCc1c[nH]c2ccc(O)cc12 [[3H]-5-HT]										6.00		
COC(=O)[C@@H](c1ccccc1)[C@@H]1CCCCN1										6.99	6.00	
CC(NC(C)(C)C)C(=O)c1cccc(Cl)c1 (stereo not drawn) [BUPROPION HYDROCHLORIDE]	< 5.00	< 5.00	< 5.00	< 5.00	< 5.00			< 5.00		6.03		
CN(C)CCCN1c2ccccc2CCc2ccccc21	5.64	6.03	5.52	< 5.00		< 5.00	8.70	5.24	< 5.00			
NCC(O)c1ccc(O)c(O)c1 (stereo not drawn) [Noradrenaline,(+)]										6.60	6.00	
COc1ccc2c(c1)CN(C)CC2c1ccc(Cl)c(Cl)c1 (stereo not drawn)										7.80		
